Our source for the remaining activity values is paper doi:10.1101/2024.08.13.607785v1 (biorxiv, 2024).

Common to all, as to assay: biochemical
What all share (parameters): species or system human cell line lysate

The target in assay [1] is T1, Cyclin-G-associated kinase ; GAK ; O14976 (Homo sapiens, UniProt O14976).
T1 sequence (O14976 1-1311): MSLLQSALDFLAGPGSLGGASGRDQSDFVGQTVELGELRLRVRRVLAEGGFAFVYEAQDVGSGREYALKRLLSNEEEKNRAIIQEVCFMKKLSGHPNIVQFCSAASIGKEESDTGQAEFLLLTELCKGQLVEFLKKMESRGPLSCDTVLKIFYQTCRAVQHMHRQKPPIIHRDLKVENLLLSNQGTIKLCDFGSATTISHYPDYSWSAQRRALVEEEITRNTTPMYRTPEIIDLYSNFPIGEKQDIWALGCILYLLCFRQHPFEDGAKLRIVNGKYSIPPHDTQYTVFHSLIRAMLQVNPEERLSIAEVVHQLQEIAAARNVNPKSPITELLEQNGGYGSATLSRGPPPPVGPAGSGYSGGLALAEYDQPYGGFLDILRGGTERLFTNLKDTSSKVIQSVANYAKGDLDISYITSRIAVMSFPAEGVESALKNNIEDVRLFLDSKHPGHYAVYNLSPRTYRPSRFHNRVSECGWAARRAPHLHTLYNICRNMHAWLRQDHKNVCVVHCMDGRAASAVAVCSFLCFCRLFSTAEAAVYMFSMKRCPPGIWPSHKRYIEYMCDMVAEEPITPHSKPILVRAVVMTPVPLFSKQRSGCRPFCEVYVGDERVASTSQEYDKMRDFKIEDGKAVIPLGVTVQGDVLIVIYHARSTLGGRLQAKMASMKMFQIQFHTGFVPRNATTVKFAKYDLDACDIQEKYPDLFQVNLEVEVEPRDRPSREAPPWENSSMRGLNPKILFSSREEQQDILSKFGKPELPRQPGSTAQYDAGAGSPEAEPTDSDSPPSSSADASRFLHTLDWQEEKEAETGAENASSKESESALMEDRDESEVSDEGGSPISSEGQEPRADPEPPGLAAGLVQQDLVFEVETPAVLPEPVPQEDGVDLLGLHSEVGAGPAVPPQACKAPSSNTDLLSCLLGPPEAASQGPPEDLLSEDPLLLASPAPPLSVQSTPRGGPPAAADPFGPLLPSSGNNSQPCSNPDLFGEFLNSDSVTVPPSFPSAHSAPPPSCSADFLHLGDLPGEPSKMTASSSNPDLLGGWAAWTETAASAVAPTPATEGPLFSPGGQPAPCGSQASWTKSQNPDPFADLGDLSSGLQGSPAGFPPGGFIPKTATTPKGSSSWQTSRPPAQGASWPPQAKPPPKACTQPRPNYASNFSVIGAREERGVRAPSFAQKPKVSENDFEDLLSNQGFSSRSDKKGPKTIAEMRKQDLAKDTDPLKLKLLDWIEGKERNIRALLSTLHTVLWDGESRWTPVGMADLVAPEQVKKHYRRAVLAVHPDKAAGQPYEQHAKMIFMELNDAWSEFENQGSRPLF

Assay [2] has as its target Dual specificity protein kinase CLK4 ; CLK4 ; Q9HAZ1 (Homo sapiens, UniProt Q9HAZ1).
Assay [3] deals with Isoform 2 of Ribosomal protein S6 kinase alpha-1 ; RPS6KA1 ; Q15418-2 (Homo sapiens, UniProt Q15418).
For assay [4], the target named is Mitogen-activated protein kinase kinase kinase 6 ; MAP3K6 ; O95382 (Homo sapiens, UniProt O95382).
The target in assay [5] is Phosphatidylinositol 5-phosphate 4-kinase type-2 gamma ; PIP4K2C ; Q8TBX8 (Homo sapiens, UniProt Q8TBX8).
Assay [6] has as its target Serine/threonine-protein kinase 3 ; STK3 ; Q13188 (Homo sapiens, UniProt Q13188).
The target of assay [7] is Serine/threonine-protein kinase BRSK1 ; BRSK1 ; Q8TDC3 (Homo sapiens, UniProt Q8TDC3).
Assay [8] has as its target Serine/threonine-protein kinase LMTK2 ; LMTK2 ; Q8IWU2 (Homo sapiens, UniProt Q8IWU2).
Assay [9] deals with Serine/threonine-protein kinase MARK2 ; MARK2 ; Q7KZI7 (Homo sapiens, UniProt Q7KZI7).
Assay [10] deals with Tyrosine-protein kinase Fyn ; FYN ; P06241 (Homo sapiens, UniProt P06241).
[11] abbreviates: read-out: BAY-1143572 (10 µM) / %Intensity relative to DMSO.
Where [12] appears, read: read-out: BAY-1251152 (10 µM) / %Intensity relative to DMSO.

Read-outs that look alike come from different tables or passages of the source.

Serine/threonine-protein kinase 3 ; STK3 ; Q13188, sequence (Q13188 whole entry, one chain of several): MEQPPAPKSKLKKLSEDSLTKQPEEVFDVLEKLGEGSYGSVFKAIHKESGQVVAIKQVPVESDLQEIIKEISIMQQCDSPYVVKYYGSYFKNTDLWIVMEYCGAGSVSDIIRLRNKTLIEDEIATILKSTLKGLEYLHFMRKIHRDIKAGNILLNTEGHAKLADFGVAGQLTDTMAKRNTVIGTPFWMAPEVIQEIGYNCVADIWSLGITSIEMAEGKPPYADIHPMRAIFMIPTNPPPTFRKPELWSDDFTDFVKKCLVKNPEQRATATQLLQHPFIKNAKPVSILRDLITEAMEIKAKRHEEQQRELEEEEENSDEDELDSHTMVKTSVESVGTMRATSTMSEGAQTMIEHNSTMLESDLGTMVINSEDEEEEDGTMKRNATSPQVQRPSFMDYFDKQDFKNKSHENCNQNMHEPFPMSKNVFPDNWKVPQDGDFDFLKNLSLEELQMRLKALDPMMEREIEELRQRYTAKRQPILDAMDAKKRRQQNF
Serine/threonine-protein kinase LMTK2 ; LMTK2 ; Q8IWU2, sequence (Q8IWU2 whole entry, one chain of several): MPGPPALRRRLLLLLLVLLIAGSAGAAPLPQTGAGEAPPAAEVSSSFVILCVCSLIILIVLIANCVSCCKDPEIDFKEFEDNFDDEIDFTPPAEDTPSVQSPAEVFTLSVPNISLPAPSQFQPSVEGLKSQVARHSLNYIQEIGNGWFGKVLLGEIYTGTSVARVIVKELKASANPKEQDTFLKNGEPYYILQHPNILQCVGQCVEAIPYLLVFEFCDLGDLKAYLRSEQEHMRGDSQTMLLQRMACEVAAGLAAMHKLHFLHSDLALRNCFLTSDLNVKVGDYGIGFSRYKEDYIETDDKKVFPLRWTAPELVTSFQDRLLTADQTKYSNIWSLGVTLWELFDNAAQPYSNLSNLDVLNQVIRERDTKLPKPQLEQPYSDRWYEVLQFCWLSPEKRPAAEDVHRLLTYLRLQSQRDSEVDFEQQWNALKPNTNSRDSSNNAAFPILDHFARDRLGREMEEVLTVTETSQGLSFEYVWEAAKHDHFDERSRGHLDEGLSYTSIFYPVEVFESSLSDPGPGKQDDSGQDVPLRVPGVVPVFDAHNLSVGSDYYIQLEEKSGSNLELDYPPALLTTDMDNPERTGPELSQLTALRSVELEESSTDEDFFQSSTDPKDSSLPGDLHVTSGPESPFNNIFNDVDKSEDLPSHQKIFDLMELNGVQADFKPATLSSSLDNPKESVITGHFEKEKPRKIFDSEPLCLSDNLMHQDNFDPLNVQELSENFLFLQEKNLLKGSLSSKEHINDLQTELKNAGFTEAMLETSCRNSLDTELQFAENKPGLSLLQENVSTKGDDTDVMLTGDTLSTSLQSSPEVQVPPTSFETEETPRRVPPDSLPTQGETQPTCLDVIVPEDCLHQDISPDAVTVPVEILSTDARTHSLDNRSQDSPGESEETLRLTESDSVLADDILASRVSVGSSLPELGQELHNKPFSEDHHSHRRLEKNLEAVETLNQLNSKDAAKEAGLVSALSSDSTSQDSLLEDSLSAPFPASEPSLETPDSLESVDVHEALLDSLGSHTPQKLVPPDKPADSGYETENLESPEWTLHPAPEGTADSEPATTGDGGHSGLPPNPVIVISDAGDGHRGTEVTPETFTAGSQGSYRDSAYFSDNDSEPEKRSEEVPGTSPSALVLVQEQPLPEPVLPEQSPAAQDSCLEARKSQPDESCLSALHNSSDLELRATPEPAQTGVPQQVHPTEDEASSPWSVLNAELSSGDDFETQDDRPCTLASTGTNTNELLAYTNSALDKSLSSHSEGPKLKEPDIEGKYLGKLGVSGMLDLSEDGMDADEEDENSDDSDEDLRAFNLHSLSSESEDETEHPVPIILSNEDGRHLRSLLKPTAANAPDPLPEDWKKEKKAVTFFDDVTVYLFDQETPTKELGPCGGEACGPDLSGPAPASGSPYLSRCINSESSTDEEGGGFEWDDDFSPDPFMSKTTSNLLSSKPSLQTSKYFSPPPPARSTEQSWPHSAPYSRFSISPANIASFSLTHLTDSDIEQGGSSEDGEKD
Serine/threonine-protein kinase BRSK1 ; BRSK1 ; Q8TDC3, sequence (Q8TDC3 whole entry, one chain of several): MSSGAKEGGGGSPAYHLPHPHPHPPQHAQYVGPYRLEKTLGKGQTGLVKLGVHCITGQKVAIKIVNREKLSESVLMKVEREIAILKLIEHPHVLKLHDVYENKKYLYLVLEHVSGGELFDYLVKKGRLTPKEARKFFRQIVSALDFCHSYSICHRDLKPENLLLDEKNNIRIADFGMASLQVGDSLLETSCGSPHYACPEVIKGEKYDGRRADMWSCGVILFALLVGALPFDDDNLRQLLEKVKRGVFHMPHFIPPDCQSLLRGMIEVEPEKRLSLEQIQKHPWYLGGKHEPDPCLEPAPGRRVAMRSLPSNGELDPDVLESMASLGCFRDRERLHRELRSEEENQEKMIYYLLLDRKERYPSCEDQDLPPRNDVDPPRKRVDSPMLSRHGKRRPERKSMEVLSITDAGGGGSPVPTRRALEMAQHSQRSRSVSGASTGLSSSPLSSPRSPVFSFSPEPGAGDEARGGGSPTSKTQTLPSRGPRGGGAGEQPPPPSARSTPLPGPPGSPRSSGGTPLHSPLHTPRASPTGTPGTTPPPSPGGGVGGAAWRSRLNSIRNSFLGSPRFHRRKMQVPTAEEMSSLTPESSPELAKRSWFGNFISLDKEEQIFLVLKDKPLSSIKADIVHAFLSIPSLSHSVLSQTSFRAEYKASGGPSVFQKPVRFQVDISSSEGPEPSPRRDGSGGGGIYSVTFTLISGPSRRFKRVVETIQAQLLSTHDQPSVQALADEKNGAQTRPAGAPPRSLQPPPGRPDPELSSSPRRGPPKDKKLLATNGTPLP
Phosphatidylinositol 5-phosphate 4-kinase type-2 gamma ; PIP4K2C ; Q8TBX8, sequence (Q8TBX8 whole entry): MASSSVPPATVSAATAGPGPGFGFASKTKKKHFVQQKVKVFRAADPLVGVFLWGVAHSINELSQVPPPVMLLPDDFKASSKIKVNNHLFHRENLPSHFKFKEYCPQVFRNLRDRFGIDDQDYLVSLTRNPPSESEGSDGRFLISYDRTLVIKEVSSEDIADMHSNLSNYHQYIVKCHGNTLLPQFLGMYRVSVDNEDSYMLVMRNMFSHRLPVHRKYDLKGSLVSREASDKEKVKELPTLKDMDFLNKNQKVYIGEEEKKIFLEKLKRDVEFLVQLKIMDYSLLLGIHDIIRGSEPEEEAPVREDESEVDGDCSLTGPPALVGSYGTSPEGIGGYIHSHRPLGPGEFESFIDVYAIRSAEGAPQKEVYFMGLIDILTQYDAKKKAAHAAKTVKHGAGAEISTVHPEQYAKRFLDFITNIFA
Dual specificity protein kinase CLK4 ; CLK4 ; Q9HAZ1, sequence (Q9HAZ1 whole entry, canonical isoform): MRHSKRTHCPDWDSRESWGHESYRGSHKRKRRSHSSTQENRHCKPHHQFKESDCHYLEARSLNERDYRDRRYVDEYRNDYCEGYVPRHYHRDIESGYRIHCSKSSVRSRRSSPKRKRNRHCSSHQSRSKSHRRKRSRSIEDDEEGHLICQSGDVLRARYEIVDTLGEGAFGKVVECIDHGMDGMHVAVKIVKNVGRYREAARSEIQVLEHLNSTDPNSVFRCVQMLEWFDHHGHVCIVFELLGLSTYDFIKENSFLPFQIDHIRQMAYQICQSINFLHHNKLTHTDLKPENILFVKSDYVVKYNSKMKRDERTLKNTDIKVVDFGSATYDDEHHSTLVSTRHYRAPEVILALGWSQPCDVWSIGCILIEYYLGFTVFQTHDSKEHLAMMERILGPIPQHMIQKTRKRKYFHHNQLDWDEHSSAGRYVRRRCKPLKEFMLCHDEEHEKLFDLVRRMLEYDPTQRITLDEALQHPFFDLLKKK
Mitogen-activated protein kinase kinase kinase 6 ; MAP3K6 ; O95382, sequence (O95382 whole entry): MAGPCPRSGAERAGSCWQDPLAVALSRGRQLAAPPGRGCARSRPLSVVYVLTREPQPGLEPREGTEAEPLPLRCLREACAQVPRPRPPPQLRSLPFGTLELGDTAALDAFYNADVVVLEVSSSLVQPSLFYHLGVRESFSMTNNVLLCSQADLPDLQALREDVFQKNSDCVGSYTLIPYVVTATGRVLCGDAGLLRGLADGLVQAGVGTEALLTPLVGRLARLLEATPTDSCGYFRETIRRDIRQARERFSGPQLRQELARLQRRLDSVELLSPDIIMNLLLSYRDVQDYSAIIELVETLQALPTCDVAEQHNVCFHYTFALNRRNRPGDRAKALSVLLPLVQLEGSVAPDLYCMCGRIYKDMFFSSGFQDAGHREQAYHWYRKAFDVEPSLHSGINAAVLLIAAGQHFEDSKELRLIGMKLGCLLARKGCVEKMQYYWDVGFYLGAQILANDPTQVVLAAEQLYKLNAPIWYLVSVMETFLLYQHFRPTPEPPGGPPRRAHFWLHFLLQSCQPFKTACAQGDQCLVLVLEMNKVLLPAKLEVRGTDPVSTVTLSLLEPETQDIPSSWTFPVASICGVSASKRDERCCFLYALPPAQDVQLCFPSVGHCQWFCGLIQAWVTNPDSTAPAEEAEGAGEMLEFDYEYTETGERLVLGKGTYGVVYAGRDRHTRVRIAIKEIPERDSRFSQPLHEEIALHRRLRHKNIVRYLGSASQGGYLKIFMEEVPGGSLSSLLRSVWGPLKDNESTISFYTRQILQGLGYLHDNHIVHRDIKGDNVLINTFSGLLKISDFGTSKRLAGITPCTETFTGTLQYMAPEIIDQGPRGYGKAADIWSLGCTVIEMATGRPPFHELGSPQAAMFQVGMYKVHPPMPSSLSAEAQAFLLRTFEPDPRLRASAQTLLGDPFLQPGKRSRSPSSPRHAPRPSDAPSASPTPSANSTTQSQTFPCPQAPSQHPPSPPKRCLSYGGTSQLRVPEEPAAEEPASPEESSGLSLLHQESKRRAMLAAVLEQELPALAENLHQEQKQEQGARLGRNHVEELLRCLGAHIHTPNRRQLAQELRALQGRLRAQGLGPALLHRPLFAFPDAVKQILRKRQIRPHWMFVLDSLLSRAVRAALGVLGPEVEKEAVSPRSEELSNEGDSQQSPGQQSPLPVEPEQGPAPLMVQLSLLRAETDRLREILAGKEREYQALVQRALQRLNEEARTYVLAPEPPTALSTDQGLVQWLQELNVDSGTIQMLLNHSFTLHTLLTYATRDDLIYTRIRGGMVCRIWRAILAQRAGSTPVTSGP

On to `COc1cc(F)ccc1-c1ncnc(Nc2cccc(C[S@](C)(=N)=O)c2)n1` [BAY-1143572], for which the remaining activity at 10 µM in assay [1] (setting [11]) was 96.6%; in [2] (setting [11]), 141%; in assay [3] (setting [11]) it was 116%; in assay [4] (setting [11]), 103%; in assay [5] (setting [11]), 110%; in [6] (setting [11]), 103%. Besides, the remaining activity at 10 µM was determined as 95.3% in [7] (setting [11]), 128% in assay [8] (setting [11]), 110% in assay [9] (setting [11]) and 92.2% in [10] (setting [11]).
As to `COc1cc(F)ccc1-c1cc(Nc2cc(CS(C)(=N)=O)ccn2)ncc1F` (centres unmarked) [BAY-1251152], the remaining activity at 10 µM turned out to be 100% in assay [1] (setting [12]); 133% in assay [2] (setting [12]); 108% in assay [3] (setting [12]); 103% in assay [4] (setting [12]); 107% in assay [5] (setting [12]); 91.9% in assay [6] (setting [12]). Also, the remaining activity at 10 µM in assay [7] (setting [12]) was 96%; in [8] (setting [12]) it was 126%; in assay [9] (setting [12]), 103%; in assay [10] (setting [12]), 103%.
